# Assay results from patent US20110099670A1, “[…] CODING FOR CIS-ACONITIC DECARBOXYLASE AND USE THEREOF” (priority 2008, published 2011).
# Target: T1, cis-aconitate decarboxylase (CAD) (Aspergillus terreus, UniProt Q0C8L3)
# T1 construct: Partial Purification of CAD from Itaconic Acid Producing A. Terreus; endogenous in cells; host or cells: Aspergillus terreus NRRL 1960 mycelium (cell free extract)
# Assay: Effect of the addition of stabilizing compounds on the CAD activity
# Assay type: biochemical, Aspergillus terreus NRRL 1960
# Conditions: * final concentration of 20 mM, PEG 20% w/v; for CAD activity after 48 h: stabilizer added to buffer; for Initial CAD Activity: stabilizer added to buffer of A. terreus cell free extract
# Description: The enzyme activity determination was essentially as described (Bentley et al., 1957 supra; Dwiarti et al., 2002, J Biosci Bioeng 94(1):29-33). 800 μl of 0.2 M sodium phosphate pH 6.5 was mixed with 100 μl 10 mM cis-aconitic acid and 100 μl protein solution and incubated for 20 till 60 min at 37° C. The reaction was stopped by the addition of 100 μl 12 M HCl. The amount of itaconic acid formed was determined by isocratic chromatography in 4 mM sulphuric acid on Bio-Rad Aminex HPX-87H column in a Dionex HPLC equipped with an UV detector at 215 nm. Calibration of the signal was accomplished by running a known amount of itaconic acid in a separate run. One unit (U) is one μmol of itaconic acid formed per minute. The same chromatographic assay was used to monitor the amount of itaconic acid formed in the broth of shake flasks or fermenter cultures as being indicative for cis-aconitate decarboxylase (CAD) induction. The protein concentration was measured according to Bradford with the Bio-Rad protein assay (Bradford, Anal Biochem 1976; 72:248-54).
# Approximately 1 g of frozen mycelium was transferred to a Teflon vessel and grinded with a metal ball for one minute using a dismembrator (Braun-Melsungen, Germany). Multiple batches of the powdered mycelium were resuspended in 10 ml 0.2 M sodium phosphate buffer pH 6.5 containing 1 mM DTT and 1 mM EDTA and allowed to hydrate at 0° C. for thirty minutes while mixing and centrifuged at 15000 g for 30 minutes at 4° C. to obtain the CFE.
# In the purification of CAD the inherent instability of the protein was noticed. […] To overcome this problem we adapted the purification method by the addition of potential stabilizers to the buffers (Table 2).
# [1] = after 48 h relative to initial CAD activity
# T1 sequence (Q0C8L3 whole entry): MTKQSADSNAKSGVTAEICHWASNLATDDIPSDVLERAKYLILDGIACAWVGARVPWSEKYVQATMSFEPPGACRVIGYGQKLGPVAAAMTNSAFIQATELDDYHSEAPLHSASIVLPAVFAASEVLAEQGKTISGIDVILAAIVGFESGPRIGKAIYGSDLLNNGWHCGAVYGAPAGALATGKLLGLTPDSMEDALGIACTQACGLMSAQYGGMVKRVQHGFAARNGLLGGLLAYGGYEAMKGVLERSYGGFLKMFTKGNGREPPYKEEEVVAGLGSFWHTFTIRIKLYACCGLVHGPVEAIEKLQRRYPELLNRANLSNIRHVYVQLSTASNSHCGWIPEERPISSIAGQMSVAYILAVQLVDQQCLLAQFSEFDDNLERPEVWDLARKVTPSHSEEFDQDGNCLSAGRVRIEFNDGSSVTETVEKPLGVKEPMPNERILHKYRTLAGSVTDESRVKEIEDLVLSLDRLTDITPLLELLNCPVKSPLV
SMILES,CAD activity after 48 h,Remaining activity [1],Initial CAD Activity,remaining activity at 20000 µM [1]
O=S([O-])[O-].[Na+].[Na+] [Na2SO3],1.30 U/mL,88%,1.48 U/mL,
O=C1O[C@H]([C@@H](O)CO)C(O)=C1O [Ascorbic Acid],0.19 U/mL,,1.36 U/mL,14%
O=C(O)c1ccccc1 [Benzoate],0.43 U/mL,32%,1.36 U/mL,
